Data: paper PMC10002422, “Aggregation Limiting Cell-Penetrating Peptides Derived from Protein Signal Sequences” (International Journal of Molecular Sciences, 2023)
Where no end group is shown, it is not given here.

Assays:
[1] = test system: Aβ1–42-GFP fusion protein expressed in U87 cells; experiment: Reduction in expressed Aβ1–42-GFP aggregation, flow cytometry; assay type: cell-based, human; details: control inhibitor

Compound | green signal in Aβ42–EGFP expressing cells after known Aβ inhibitor [1] | peptide concentration at which cell viability is reduced (MTS) in serum free media (U87 cells) [µM] | reduction in the viability of cells (MTS) in serum free media (U87 cells)
O=S1(=O)OC(c2ccc(O)cc2)(c2ccc(O)cc2)c2ccccc21 [phenol red] | significantly increased the green signal |  | 
MANLGYWLLALFVTMWTDVGLCKKRPKP-NH2 [PrP1–28] |  | 2.5 | over 20%
MLRTKDLIWTLFFLGTAVSKKRPKP-NH2 [NCAM1_1–19PrP23–28] |  | 20 | 
